# Assay results published in patent US20210392895A1, “NOVEL OXADIAZOLES” (PI INDUSTRIES LIMITED, priority 2018, published 2021).
# System: Phakopsora pachyrhizi
# Assay: Phakopsora pachyrhizi test in soybean (greenhouse, preventive activity, disease severity rating)
# Type: in vivo
# Details: preventive spray on soybean, compared to the untreated check
# Protocol: To test the preventive activity of compounds, healthy young soybean plants, raised in the greenhouse, were sprayed with the active compound solution at the stated application rates inside spray cabinets using hallowcone nozzles. One day after treatment, the plants were inoculated with a suspension containing 2.1×10^6 Phakopsora pachyrhizi spores. The inoculated plants were then kept in the greenhouse chamber at 25° C. temperature and 90% relative humidity for disease expression. A visual assessment of the compound's performance was carried out by rating the disease severity (0-100% scale) on treated plants on 3, 7, 10 and 15 days after application. Efficacy (% control) of the compounds was calculated by comparing the disease rating in the treatment with the one of the untreated control. The treated plants were also assessed for plant compatibility by recording symptoms like necrosis, chlorosis and stunting.
row,SMILES,pest or weed control at 500 ppm [%]
1,"O=C(c1cccc(Br)c1)N1CC[C@H](Oc2ccc(-c3noc(C(F)(F)F)n3)cc2)C1 [Compound 3, (S)-(3-bromophenyl)(3-(4-(5-(trifluoromethyl)-1,2,4-oxadiazol-3-yl)phenoxy)pyrrolidin-1-yl)methanone]",> 70
2,"CN(C)c1ccc(C(=O)N2CC[C@H](Oc3ccc(-c4noc(C(F)(F)F)n4)cc3)C2)cc1 [Compound 8, (S)-(4-(dimethylamino)phenyl)(3-(4-(5-(trifluoromethyl)-1,2,4-oxadiazol-3-yl)phenoxy)pyrrolidin-1-yl)methanone]",> 70
3,"O=C(C1CCC1)N1CC[C@H](Oc2ccc(-c3noc(C(F)(F)F)n3)cc2)C1 [Compound 9, (S)-cyclobutyl(3-(4-(5-(trifluoromethyl)-1,2,4-oxadiazol-3-yl)phenoxy)pyrrolidin-1-yl)methanone]",> 70
4,"O=C(c1ccc(F)cc1)N1CC[C@H](Oc2ccc(-c3noc(C(F)(F)F)n3)cc2)C1 [Compound 14, (S)-(4-fluorophenyl)(3-(4-(5-(trifluoromethyl)-1,2,4-oxadiazol-3-yl)phenoxy)pyrrolidin-1-yl)methanone]",> 70
5,"O=C(c1ccccc1)N1CC[C@H](Oc2ccc(-c3noc(C(F)(F)F)n3)cc2)C1 [Compound 15, (S)-phenyl(3-(4-(5-(trifluoromethyl)-1,2,4-oxadiazol-3-yl)phenoxy)pyrrolidin-1-yl)methanone]",> 70
6,"O=C(c1cccc(Br)c1)N1CC(Oc2ccc(-c3noc(C(F)(F)F)n3)cc2)C1 [Compound 16, (3-bromophenyl)(3-(4-(5-(trifluoromethyl)-1,2,4-oxadiazol-3-yl)phenoxy)azetidin-1-yl)methanone]",> 70
7,"O=C(c1cccc(F)c1)N1CC(Oc2ccc(-c3noc(C(F)(F)F)n3)cc2)C1 [Compound 18, (3-fluorophenyl)(3-(4-(5-(trifluoromethyl)-1,2,4-oxadiazol-3-yl)phenoxy)azetidin-1-yl)methanone]",> 70
8,"O=C(c1ccccc1F)N1CC(Oc2ccc(-c3noc(C(F)(F)F)n3)cc2)C1 [Compound 20, (2-fluorophenyl)(3-(4-(5-(trifluoromethyl)-1,2,4-oxadiazol-3-yl)phenoxy)azetidin-1-yl)methanone]",> 70
9,"O=S(=O)(Cc1ccccc1)N1CC(Oc2ccc(-c3noc(C(F)(F)F)n3)cc2)C1 [Compound 22, 3-(4-((1-(benzylsulfonyl)azetidin-3-yl)oxy)phenyl)-5-(trifluoromethyl)-1,2,4-oxadiazole]",> 70
10,"CC(C)(C)OC(=O)N1CC[C@H](Oc2ccc(-c3noc(C(F)(F)F)n3)cc2)C1 [Compound 23, tert-butyl (S)-3-(4-(5-(trifluoromethyl)-1,2,4-oxadiazol-3-yl)phenoxy)pyrrolidine-1-carboxylate]",> 70
11,"O=S(=O)(c1ccccc1)N1CC[C@H](Oc2ccc(-c3noc(C(F)(F)F)n3)cc2)C1 [Compound 25, (S)-3-(4-((1-(phenylsulfonyl)pyrrolidin-3-yl)oxy)phenyl)-5-(trifluoromethyl)-1,2,4-oxadiazole]",> 70
12,"O=S(=O)(c1cccc(F)c1)N1CC[C@H](Oc2ccc(-c3noc(C(F)(F)F)n3)cc2)C1 [Compound 26, (S)-3-(4-((1-((3-fluorophenyl)sulfonyl)pyrrolidin-3-yl)oxy)phenyl)-5-(trifluoromethyl)-1,2,4-oxadiazole]",> 70
13,"CC(C)(C)OC(=O)N1CC[C@H](Oc2ccc(-c3noc(C(F)(F)F)n3)nc2)C1 [Compound 27, tert-butyl (S)-3-((6-(5-(trifluoromethyl)-1,2,4-oxadiazol-3-yl)pyridin-3-yl)oxy)pyrrolidine-1-carboxylate]",> 70
14,"O=C(c1ccccc1F)N1CC[C@H](Oc2ccc(-c3noc(C(F)(F)F)n3)nc2)C1 [Compound 28, (S)-(2-fluorophenyl)(3-((6-(5-(trifluoromethyl)-1,2,4-oxadiazol-3-yl)pyridin-3-yl)oxy)pyrrolidin-1-yl)methanone]",> 70
15,"COc1ccc(C(=O)N2CC[C@H](Oc3ccc(-c4noc(C(F)(F)F)n4)nc3)C2)cc1 [Compound 29, (S)-(4-methoxyphenyl)(3-((6-(5-(trifluoromethyl)-1,2,4-oxadiazol-3-yl)pyridin-3-yl)oxy)pyrrolidin-1-yl)methanone]",> 70
16,"O=C(c1cccc(F)c1)N1CC[C@H](Oc2ccc(-c3noc(C(F)(F)F)n3)nc2)C1 [Compound 30, (S)-(3-fluorophenyl)(3-((6-(5-(trifluoromethyl)-1,2,4-oxadiazol-3-yl)pyridin-3-yl)oxy)pyrrolidin-1-yl)methanone]",> 70

row,SMILES,pest or weed control at 500 ppm [%]
1,"O=C(c1cccnc1)N1CC[C@H](Oc2ccc(-c3noc(C(F)(F)F)n3)nc2)C1 [Compound 31, (S)-pyridin-3-yl(3-((6-(5-(trifluoromethyl)-1,2,4-oxadiazol-3-yl)pyridin-3-yl)oxy)pyrrolidin-1-yl)methanone]",> 70
2,"O=C(c1ccncc1)N1CC[C@H](Oc2ccc(-c3noc(C(F)(F)F)n3)nc2)C1 [Compound 32, (S)-pyridin-4-yl(3-((6-(5-(trifluoromethyl)-1,2,4-oxadiazol-3-yl)pyridin-3-yl)oxy)pyrrolidin-1-yl)methanone]",> 70
3,"O=S(=O)(c1ccccc1F)N1CC[C@H](Oc2ccc(-c3noc(C(F)(F)F)n3)cc2)C1 [Compound 33, (S)-3-(4-((1-((2-fluorophenyl)sulfonyl)pyrrolidin-3-yl)oxy)phenyl)-5-(trifluoromethyl)-1,2,4-oxadiazole]",> 70
4,"COc1ccc(S(=O)(=O)N2CC[C@H](Oc3ccc(-c4noc(C(F)(F)F)n4)cc3)C2)cc1 [Compound 34, (S)-3-(4-((1-((4-methoxyphenyl)sulfonyl)pyrrolidin-3-yl)oxy)phenyl)-5-(trifluoromethyl)-1,2,4-oxadiazole]",> 70
5,"O=S(=O)(c1ccc(F)cc1)N1CC[C@H](Oc2ccc(-c3noc(C(F)(F)F)n3)cc2)C1 [Compound 35, (S)-3-(4-((1-((4-fluorophenyl)sulfonyl)pyrrolidin-3-yl)oxy)phenyl)-5-(trifluoromethyl)-1,2,4-oxadiazole]",> 70
6,"O=C(c1ccc(OC(F)(F)F)cc1)N1CC[C@H](Oc2ccc(-c3noc(C(F)(F)F)n3)cc2)C1 [Compound 36, (S)-(4-(trifluoromethoxy)phenyl)(3-(4-(5-(trifluoromethyl)-1,2,4-oxadiazol-3-yl)phenoxy)pyrrolidin-1-yl)methanone]",> 70
7,"O=C(Nc1ccccc1F)N1CC[C@H](Oc2ccc(-c3noc(C(F)(F)F)n3)cc2)C1 [Compound 37, (S)—N-(2-fluorophenyl)-3-(4-(5-(trifluoromethyl)-1,2,4-oxadiazol-3-yl)phenoxy)pyrrolidine-1-carboxamide]",> 70
8,"O=C(Nc1ccc(F)cc1)N1CC[C@H](Oc2ccc(-c3noc(C(F)(F)F)n3)cc2)C1 [Compound 38, (S)-N-(4-fluorophenyl)-3-(4-(5-(trifluoromethyl)-1,2,4-oxadiazol-3-yl)phenoxy)pyrrolidine-1-carboxamide]",> 70
9,"O=S(=O)(C1CC1)N1CC[C@H](Oc2ccc(-c3noc(C(F)(F)F)n3)cc2)C1 [Compound 41, (S)-3-(4-((1-(cyclopropylsulfonyl)pyrrolidin-3-yl)oxy)phenyl)-5-(trifluoromethyl)-1,2,4-oxadiazole]",> 70
10,"O=S(=O)(c1ccc(F)cc1F)N1CC[C@H](Oc2ccc(-c3noc(C(F)(F)F)n3)cc2)C1 [Compound 42, (S)-3-(4-((1-((2,4-difluorophenyl)sulfonyl)pyrrolidin-3-yl)oxy)phenyl)-5-(trifluoromethyl)-1,2,4-oxadiazole]",> 70
11,"O=C(C1CC1)N1CC[C@H](Oc2ccc(-c3noc(C(F)(F)F)n3)cc2)C1 [Compound 43, (S)-cyclopropyl(3-(4-(5-(trifluoromethyl)-1,2,4-oxadiazol-3-yl)phenoxy)pyrrolidin-1-yl)methanone]",> 70
12,"O=C(c1ccc(Cl)cc1)N1CC[C@H](Oc2ccc(-c3noc(C(F)(F)F)n3)cc2)C1 [Compound 44, (S)-(4-chlorophenyl)(3-(4-(5-(trifluoromethyl)-1,2,4-oxadiazol-3-yl)phenoxy)pyrrolidin-1-yl)methanone]",> 70
13,"COc1ccc(C(=O)N2CC[C@H](Oc3ccc(-c4noc(C(F)(F)F)n4)cn3)C2)cc1 [Compound 46, (S)-(4-methoxyphenyl)(3-((5-(5-(trifluoromethyl)-1,2,4-oxadiazol-3-yl)pyridin-2-yl)oxy)pyrrolidin-1-yl)methanone]",> 70
14,"O=C(c1cccc(F)c1)N1CC[C@H](Oc2ccc(-c3noc(C(F)(F)F)n3)cn2)C1 [Compound 47, (S)-(3-fluorophenyl)(3-((5-(5-(trifluoromethyl)-1,2,4-oxadiazol-3-yl)pyridin-2-yl)oxy)pyrrolidin-1-yl)methanone]",> 70
15,"CCS(=O)(=O)N1CC[C@H](Oc2ccc(-c3noc(C(F)(F)F)n3)cn2)C1 [Compound 50, (S)-3-(6-((1-(ethylsulfonyl)pyrrolidin-3-yl)oxy)pyridin-3-yl)-5-(trifluoromethyl)-1,2,4-oxadiazole]",> 70
16,"C[N+]1(C)CC[C@H](Oc2ccc(-c3noc(C(F)(F)F)n3)cn2)C1 [Compound 51, (S)-1,1-dimethyl-3-((5-(5-(trifluoromethyl)-1,2,4-oxadiazol-3-yl)pyridin-2-yl)oxy)pyrrolidin-1-ium 2,2,2-trifluoroacetate]",> 70
